Measurements: ChEMBL document CHEMBL5154826, “Discovery of the Clinical Candidate MAK683: An EED-Directed, Allosteric, and Selective PRC2 Inhibitor for the Treatment of Advanced Malignancies” (J Med Chem, 2022)

How the values were obtained:
[1] = biological target: T1, Muscarinic acetylcholine receptor M2 (Homo sapiens, UniProt P08172); assay: Agonist activity at muscarinic M2 receptor (unknown origin); type: functional
T1 sequence (P08172 whole entry): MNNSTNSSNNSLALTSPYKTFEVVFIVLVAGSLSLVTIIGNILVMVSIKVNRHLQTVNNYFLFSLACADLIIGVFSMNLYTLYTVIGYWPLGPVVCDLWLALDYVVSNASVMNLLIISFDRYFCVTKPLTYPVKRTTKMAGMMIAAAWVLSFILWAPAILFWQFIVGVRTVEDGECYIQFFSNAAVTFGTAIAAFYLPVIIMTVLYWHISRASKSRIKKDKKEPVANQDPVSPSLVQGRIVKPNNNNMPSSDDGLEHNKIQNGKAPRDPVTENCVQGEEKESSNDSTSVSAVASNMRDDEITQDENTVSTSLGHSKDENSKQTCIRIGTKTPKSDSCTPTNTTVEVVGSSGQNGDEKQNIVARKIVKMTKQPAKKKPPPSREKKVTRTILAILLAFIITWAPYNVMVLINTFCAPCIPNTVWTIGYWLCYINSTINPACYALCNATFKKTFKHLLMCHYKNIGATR

[2] = Plasma clearance in dog; type: ADME, cell-free, Canis lupus familiaris
[3] = Intrinsic clearance in human hepatocytes measured per 10^6 cells; type: ADME, cell-based, Hepatocyte; settings: read-out: CLH
[4] = Toxicity in Athymic NTac:NIH-Whn nude rat xenografted with human Karpas-422 cells assessed as reduction in body weight at 60 mg/kg, po, qd measured upto 140 days; type: organism-based; settings: in vivo, 3360 h, time < 140 day
[5] = Intrinsic clearance in mouse hepatocytes measured per 10^6 cells; type: ADME, cell-based, Hepatocyte; settings: read-out: CLH
[6] = Antitumor activity against human Karpas-422 cells xenografted Athymic BALB/c nude mouse assessed as inhibition of tumor growth at 30 mg/kg, po bid, for 33 days; type: functional; design: scale not given: the % may be the effect or the level left; settings: time 33 day

IC50 [1]: 8.9 µM
clearance [2]: 13 mL/min/kg
hepatocyte CLint [3]: 4.4 µL/min/1e6 cells
hepatocyte CLint [5]: 3.9 µL/min/1e6 cells
SMILES: Cc1ncccc1-c1cnc(NCc2c(F)ccc3c2CCO3)n2cnnc12
Activity [4]: Toxic
Activity [6]: 100%
